This note sets out measurements from US6995283B2, “Benzophenones as inhibitors of reverse transcriptase” (priority 2001, dated 2006).

≈ marks a conversion by molar mass, not a printed value. Where two headings read alike, the source gives them in different places.

In one series the test system is HIV-1 wild type virus. The series is described as follows: Anti-HIV activity of parent compounds, wild type virus (Table 1; HeLa-CD4-LTR-β-gal cell assay). In kind it is cell-based. To be noted: Human immunodeficiency virus 1, read-out: Wt. As to the method:
(§1) The HeLa cell assay was performed according to a modifcation of Kimpton J. and Emerman M., Detection of replication-competent and pseudotyped human inmmunodeficiency virus with a sensitive cell line on the basis of activation of an integrated β-galactosidase gene, J. Virol. 66:2232-2239 (1992), in which HIV-1 infection is detected by the activation of an HIV-LTR driven β-galactosidase reporter that is integrated into the genome of a CD4^+ HeLa cell line. Quantitation of β-galactosidase is achieved by measuring the activation of a chemiluminescent substrate (Tropix). The concentration of each compound required to inhibit 50% (IC50) of the HIV-1 induced β-galactosidase signal, relative to untreated controls, was determined for each isogenic, recombinant virus.
(§2) HeLa-CD4-LTR-β-gal cells are propagated in DMEM containing 10% fetal bovine serum+0.2 mg/ml geneticin+0.1 mg/ml hygromycin B. Cells are split by standard trypsinization when confluency reaches 80% (roughly every 2 to 3 days).
(§3) DNA encoding the HIV-1 reverse transcriptase was subcloned from a M13 phage into a general shuttle vector, pBCSK+, as a ˜1.65 kbp EcoRI/HindIII ended DNA fragment. The HIV DNA insert of the resulting plasmid, pRT2, was completely sequenced on both strands prior to use in site directed mutagenesis experiments. Specific amino acid replacements were made using Stratagene Quick Change reagents and mutagenic oligonucleotides from Oligos. […]
(§4) Mutant HIV-1 strains were isolated by a modified Recombinant Virus Assay (Kellamn P. and Larder B., Recombinant virus assay: a rapid, phenotypic assay for assessment of drug susceptibility of human immunodeficiency virus type 1 isolates, Antimicrobial Agents and Chemotherapy, 38:23-30,1994). […] Transfected cell cultures were expanded and monitored until syncitia formation and CPE were extensive. […]
(§5) HIV-1 virus stocks must be titered in the MAGI assay system to establish the appropriate infecting dose. The endpoint for this assay is relative light units (RLUs), and titer is recorded as RLUs/ml. […]

The subject of a further series is Nev-R mutant virus. As to the kind of experiment: Anti-HIV activity of parent compounds, Nev-R mutant virus (Table 1; HeLa-CD4-LTR-β-gal cell assay). In kind it is cell-based, HIV-1. To be noted: Human immunodeficiency virus 1, read-out: Nev-R. As to the method:
as §1, §2, §3, §4, §5

A further series can be described thus: Solubility. In kind it is physicochemical. On the procedure: A stir bar was put in the vial. The vials were closed with caps and placed on stir plate. […] After equilibration, the samples were centrifuged. An accurate aliquot of clear solution was transferred to a HPLC vial by micropipette. The solubility was determined by HPLC with UV detector and against standard.

Series [1] is described as follows: Oral bioavailability in male Sprague-Dawley rats. In kind it is in vivo, Sprague-Dawley (CD) rat. To be noted: free acid, Amorph.; for AUC(0-inf): rat, plasma. On the procedure: Methods used were generally as described in Example 53, with the following modifications: Sample Collection—In addition to anticoagulant (EDTA), an enzyme inhibitor cocktail containing 50 μL of 100 mM AEBSF (4-(2-aminoethyl)benzenessulfonylfluoride HCl, CalBioChem, cat. no. 101500); 200 mM Benzamide(CalBioChem, cat. no. 199001); and 200 mM EACA (Epislon Amino-n-caproic acid, CalBioChem cat. no. 1381) in FTA Hemaglutionation Buffer (Becton Dickson, cat. no. 4311248) per 1 mL of blood was added to rat blood samples at the time of collection.
HPLC-MS-MS Conditions—Chromatography was performed on a Phenomenex Aqua C18 HPLC Mercury Cartridge (3-micron particle size, 20 mm×2 mm id) or Luna C18 column (50×2 mm).

In the case of `Cc1cc(S(N)(=O)=O)ccc1NC(=O)COc1ccc(Cl)cc1C(=O)c1cc(C#N)cc(C(F)(F)F)c1` [Compound 58], the IC50 in the series on HIV-1 wild type virus was 2.4 nM; with Nev-R mutant virus it was 0.9 nM.
For the compound `CCC(=O)NS(=O)(=O)c1ccc(NC(=O)COc2ccc(Cl)cc2C(=O)c2cc(Cl)cc(C#N)c2)c(C)c1` [Compound 41, 2-[4-chloro-2-(3-chloro-5-cyanobenzoyl)phenoxy]-N-{2-methyl-4-[(propionylamino)sulfonyl]phenyl}acetamide], the “solubility (in words)” value in the series “Solubility” (in comparison with compound 40) was “improved solubility”.
The term solubility denotes the concentration that dissolves in the medium under given conditions. For `Cc1cc(S(N)(=O)=O)ccc1NC(=O)COc1ccc(Cl)cc1C(=O)c1cc(Cl)cc(C#N)c1` [Compound 40, N-[4-(aminosulfonyl)-2-methylphenyl]-2-[4-chloro-2-(3-chloro-5-cyanobenzoyl)phenoxy]acetamide], the IC50 in the series with HIV-1 wild type virus fell in the range of 0.5 to 1.8 nM; with Nev-R mutant virus, 0.4 to 1.2 nM. In series [1] (PO (soln) 1 mg/kg, DMSO:Tween-80:5% Mannitol (20:0.1:79.9)), the “Mean Exposures of 40 Fapp” value was 7%. For the same compound, the AUC(0-inf) is 1740 ± 363 ng·h/mL in series [1] (IV 1 mg/kg, PEG400:Solutol:Water (30:20:50), read-out: Mean Exposures of 40 AUC0-∞) and 128 ng·h/mL in series [1] (PO (soln) 1 mg/kg, DMSO:Tween-80:5% Mannitol (20:0.1:79.9), n = 1, read-out: Mean Exposures of 40 AUC0-∞). The solubility in the series “Solubility” (fassgf or other biorelevant, thermodynamic from solid, SIF, Crystal Form 1, read-out: Solubility) came to 2.9 µg/mL (≈ 5.59 µM).
For `Cc1cc(S(N)(=O)=O)ccc1NC(=O)COc1ccc(Cl)cc1C(=O)c1cc(F)cc(C(F)(F)F)c1` [Compound 71], the IC50 was 0.1 to 28 nM in the series on HIV-1 wild type virus and 0.4 to 14 nM in the series with Nev-R mutant virus.
Turning to `CCC(=O)NS(=O)(=O)c1ccc(NC(=O)COc2ccc(Cl)cc2C(=O)c2cc(Cl)cc(C#N)c2)c(C)c1.[Ca]` [Calcium salt, 2-[4-chloro-2-(3-chloro-5-cyanobenzoyl)phenoxy]-N-{2-methyl-4-[(propionylamino)sulfonyl]phenyl}acetamide, Calcium Salt, Form 2], the solubility in the series “Solubility” (water, Crystal Form 2) was found to be 700 µg/mL.
